Data from the RepoRT retention time repository.

Assay: Agilent ZORBAX 300 SB-C18, 150 × 1 mm, 3.5 µm; A: water + 0.01% heptafluorobutyric acid; B: acetonitrile + 0.01% heptafluorobutyric acid; gradient (min/%B) 0/0 100/90
Conditions: stereoisomer not certain

Row | Compound | LC retention time [min]
1 | Cc1ccc2[nH]c(=O)c(C=NC(CO)(CO)CO)c(O)c2c1 | 7.75
2 | CN(C)CCOC(c1ccccc1)c1ccccc1 | 10.9
3 | O=c1cccc[nH]1 | 4.79
4 | CN1CCCN(C)C1=O | 6.94
5 | O=C(NN=Cc1ccc(O)c(O)c1)c1ccc(NC(=O)c2ccccc2)cc1 | 10.2
6 | CC1(C)CC(NC(=O)NC2CCCCC2)CC(C)(C)N1 | 8.78
7 | NC1=NCCS1 | 5.28
8 | COc1cc2c(cc1OC)NC(=O)C2 | 7.73
9 | NC1C(O)OC(CO)C(O)C1O (stereo not drawn) | 2.77
10 | O=C(C=Cc1ccccc1)c1ccc(O)cc1 | 12.9
11 | NNC(=O)C(O)C(O)C(=O)NN (stereo not drawn) | 1.94
12 | c1ccc2[nH]cnc2c1 | 7.09
13 | O=C(Nc1cccnc1)c1cnccn1 | 7.28
14 | O=C(c1cccc(C(=O)N(Cc2ccccc2)c2ccccn2)c1)N(Cc1ccccc1)c1ccccn1 | 15.4
15 | NC(=S)NC(N)=S | 6.5
16 | CC(=NNc1ccccc1)C1=C(C)NC(=O)NC1c1ccccc1 (stereo not drawn) | 10.8
17 | Oc1ccc(-c2cccc(-c3ccc(O)cc3)n2)cc1 | 10.1
18 | C#CC(C)(C)N | 6.38
19 | O=C(NN=CC=NNC(=O)c1ccccn1)c1ccccn1 | 8.62
20 | O=C(NC(c1ccccc1)c1ccccc1)c1cccnc1 | 12.1
21 | CCN1CCCCC1 | 6.52
22 | Cc1ccc(-c2nc(-c3ccc(-c4ccccc4)cc3)[nH]c2-c2ccccc2)cc1C | 15
23 | CCCCNCC | 7.1
24 | Cc1cc(C)nc(C)c1 | 7.46
25 | NC(=O)c1cnc2ccccc2n1 | 8.31
26 | c1c[nH]cn1 | 2.95

Row | Compound | LC retention time [min]
27 | c1coc(C2NCCc3ccccc32)c1 (stereo not drawn) | 8.65
28 | CNc1ccncc1 | 6.54
29 | Cn1c(=O)cc(C(=O)O)[nH]c1=O | 1.57
30 | O=S(=O)(O)CCN1CCN(CCO)CC1 | 1.95
31 | CC(C)(C)C(=O)NNc1ccccc1 | 10.5
32 | C#CC1(NC(C)=O)CCCCC1 | 9.46
33 | O=C(c1cncc(C(=O)N2CCC(Cc3ccccc3)CC2)c1)N1CCC(Cc2ccccc2)CC1 | 17.1
34 | CN(C)c1ccc(CCN)cc1 | 7.22
35 | Cc1ccc2[nH]c(-c3cc[n+](C)cc3)cc2c1 | 9.82
36 | C=CCOc1ccccc1OCC(O)CNC(C)C (stereo not drawn) | 9.94
37 | c1ccc(-c2nc3ccccc3[nH]2)cc1 | 9.01
38 | CCCC(C)N (stereo not drawn) | 7.09
39 | CC(=O)Oc1cccc(C(=O)NN2C(=O)c3ccccc3C2=O)c1 | 11.1
40 | c1ccc(Nc2ncnc3nc[nH]c23)cc1 | 8.8
41 | CCn1c2ccccc2c2cc(CNC3CC3)ccc21 | 10.8
42 | CC(C)CN | 6.34
43 | OCC1CCCN2CCCCC12 (stereo not drawn) | 6.81
44 | NCc1cc2ccccc2o1 | 8.09
45 | COc1nc(N2CCCC2)[nH]c(=O)n1 | 7.43
46 | Cc1cc(-c2ccccc2)cc(-c2ccccc2)n1 | 12.1
47 | O=C(Nc1cccnc1)c1ccccn1 | 8.14
48 | NNc1cccc2ncccc12 | 8.48
49 | Nc1ccc2c(c1)oc1ccccc12 | 11.6
50 | CCC(C)c1ccccc1NC(=S)Nc1cccnc1 (stereo not drawn) | 11
51 | Cc1ccc(CNC2CCCC2)o1 | 8.53
52 | CCCCCCN(C)C | 8.53

Row | Compound | LC retention time [min]
53 | CCOC(=O)C(N)Cc1ccccc1 (stereo not drawn) | 9.03
54 | CCN(CC)c1ccc(C2Nc3ccccc3C(CC)(CC)O2)cc1 (stereo not drawn) | 13.8
55 | Cc1ccc(N2C3=C(C(=O)CC(C)(C)C3)C(c3ccccc3)C3=C2c2ccccc2C3=O)cc1 (stereo not drawn) | 18.4
56 | CC(=O)CNC(C)(C)C(C)=O | 5.92
57 | O=C(NN=Cc1cc2ccccc2[nH]1)c1ccccc1 | 10.9
58 | CC(C)(C)NCC(O)c1ccc(O)c(CO)c1 (stereo not drawn) | 7.63
59 | NC(=O)CC(NC(N)=O)C(=O)O (stereo not drawn) | 1.47
60 | CC(c1ccccc1)N1CNc2c(c(=O)[nH]c(=O)n2Cc2ccccc2)C1 (stereo not drawn) | 9.33
61 | Cc1ccc(-c2noc(-c3ccc(C)cc3)c2C)cc1 | 19.3
62 | CCCc1ccc(N)cc1 | 9.04
63 | COc1ccc(C(CNC(=O)c2n[nH]c(=O)c3ccccc23)Cc2ccccc2)cc1OC (stereo not drawn) | 13.3
64 | Cc1ccc(CN2CCN(N=Cc3ccco3)CC2)cc1 | 9.55
65 | CNc1cnccn1 | 6.32
66 | COC(=O)COC(=O)c1ccccc1NC(=O)c1ccccc1 | 15.1
67 | CC1(C)CC(NC(=O)C(=O)NCCc2ccccc2)CC(C)(C)N1 | 9.44
68 | CC(C)[N+]1(C)C2CCC1CC(OC(=O)C(CO)c1ccccc1)C2 (stereo not drawn) | 9.23
69 | Cc1cc(N)c2ccccc2[n+]1CCCCCCCCCC[n+]1c(C)cc(N)c2ccccc21 | 10.7
70 | COC(=O)c1[nH]c2ccccc2c1-n1cccc1 | 14.3
71 | CC(C)C(C)N (stereo not drawn) | 6.98
72 | NC1c2ccccc2CC1O (stereo not drawn) | 7.28
73 | CCCCOc1cc(C(=O)NCCN(CC)CC)c2ccccc2n1 | 11.8
74 | O=c1c2ccccc2ncn1Cc1ccncc1 | 8.03
75 | Cc1nc(N=C(N)N)nc2c(C)cccc12 | 9.23
76 | CC(=O)Oc1ccc(-c2cnc3ccccc3n2)cc1 | 13.9
77 | CCC(C)N1CNc2c(c(=O)[nH]c(=O)n2-c2ccc(C)c(C)c2)C1 (stereo not drawn) | 8.26
78 | CC(C)c1ncc[nH]1 | 6.64

Row | Compound | LC retention time [min]
79 | CN1C(=O)NC(c2ccc(O)cc2)C2=C1CN(Cc1ccccc1)C2=O (stereo not drawn) | 9.6
80 | CC(C)(N)CO | 4.39
81 | COc1ccc(C2NNc3nn(-c4ccccc4OC)nc32)cc1 (stereo not drawn) | 13.6
82 | CC1CCCCN1C(=O)c1ccccc1NC(=O)c1ccco1 (stereo not drawn) | 12.4
83 | COc1c(C)cccc1C(=O)NN | 8.52
84 | CC(C)c1ccc(C=C2Nc3ccccc3C2=O)cc1 | 16.9
85 | O=C(C=Cc1ccccc1)c1ccc(O)c(O)c1O | 12.6
86 | COc1cc(N)c(N2CCOCC2)cc1OC | 7.99
87 | Nc1cc(N)[nH]c(=S)n1 | 6.42
88 | Cc1c(-c2nc3ccccc3[nH]2)cnn1C | 8.16
89 | NCCN1CCNCC1 | 6.42
90 | O=S(=O)(O)c1ccc(Nc2ccccc2)cc1 | 7.25
91 | O=C1NC(Cc2c[nH]c3ccccc23)C(=O)NC1Cc1c[nH]c2ccccc12 (stereo not drawn) | 9.58
92 | Cc1cc(C(=O)N2CCCCC2)c2c(=O)n(CC(=O)Nc3ccccc3)c(=O)n(-c3ccccc3)c2n1 | 13.5
93 | CC(NCCc1ccc(O)cc1)C(O)c1ccc(O)cc1 (stereo not drawn) | 8.48
94 | Cc1ccc(CNC(=S)Nc2ccccc2)n1C | 13.1
95 | O=C(Cn1cnc2ccccc2c1=O)NN=Cc1cnc2ccccc2n1 | 10.1
96 | COC(=O)c1ccccc1-c1cc(C(=O)OC)c2ccccc2n1 | 15
97 | CN(C)c1ccc(N=C2C=CC(=Nc3ccc(N(C)C)cc3)C=C2)cc1 | 9.47
98 | c1ccc(CCN(Cc2ccncc2)Cc2ccccn2)cc1 | 8.96
99 | O=C(CCCN1C(=O)c2ccccc2C1=O)OCc1ccccc1 | 15.1
100 | Nc1ccc(CN2CCCC2)cc1 | 7.04
101 | CC1=Nc2ccccc2Sc2ccccc21 | 14.5
102 | O=C(O)CCC(=O)Nc1ccc(Cc2ccc(NC(=O)CCC(=O)O)cc2)cc1 | 9.35
103 | CCC(=O)c1ccc2c(c1)N(CC(C)N(C)C)c1ccccc1S2 (stereo not drawn) | 11.8
104 | Cc1nc2ccccc2nc1C=O | 10.9

Row | Compound | LC retention time [min]
105 | O=C(CCC1CCCC1)N1CCN(C(=O)COc2ccccc2)CC1 | 13.7
106 | COc1ccc2c(c1)C(C)N1C(=O)c3cc(OC)c(OC)cc3C1O2 (stereo not drawn) | 13.1
107 | c1ccc(CNCCNc2ccccc2)cc1 | 9.6
108 | CC(=O)Nc1cc(=O)[nH]c(C)n1 | 5.68
109 | Cc1ccccc1-n1nnnc1-c1ccc(-c2nnnn2-c2ccccc2C)cc1 | 15.3
110 | O=C(O)CCCNC(=O)CCCCCCCC(=O)NCCCC(=O)O | 7.58
111 | Cc1ncnc2nc[nH]c12 | 5.87
112 | C#CC(C)(CC)NC(=O)Cc1ccccc1 (stereo not drawn) | 12.2
113 | CC1(C)CC(=O)C2=C(C1)NCN(Cc1ccccc1)C2 | 8.44
114 | c1ccc2c(c1)CCc1c-2[nH]c2ccccc12 | 17.1
115 | Cc1cc[n+](CCC(=O)O)c2ccccc12 | 7.41
116 | CNC(C)=O | 2.1
117 | Cc1cc(=O)n(-c2ccc(C(=O)O)cc2)[nH]1 | 8.05
118 | OCC1CC(O)CN1 (stereo not drawn) | 2.85
119 | O=C(CN1CCN(C(=O)CNC2CCCCC2)CC1)NC1CCCCC1 | 9.54
120 | C1CN(CCN2CCOCC2)CCO1 | 6.81
121 | Cc1ccc(N2CC(C(=O)O)CC2=O)cc1C (stereo not drawn) | 10.2
122 | c1ccc(Cn2c3ccccc3n3c(Nc4ccccc4)nnc23)cc1 | 12.7
123 | Cc1cccc2c1CC(C)(C)NC2=S | 13.3
124 | O=Cc1c(-c2ccccc2)c(C=O)n2ccccc12 | 13.9
125 | NCC1(O)CCCCC1 | 7.06
126 | CCCN(CCC)CCC | 8.17
127 | CC1C2=C(CC(C)(C)CC2=O)NC2=C1C(=O)CC(C)(C)C2 | 10.9
128 | Cc1cc(C=O)c(C)n1C(C)C | 11.1
